What was measured:
[1] = tested on: Human breast cancer cells (MCF-7); experiment: Influence of betalain pigment on human breast cancer cells (AlamarBlue assay); assay type: cell-based; settings: MCF-7 cells, concentration of 50 μM, cultured for 72 hours, p<0.05 vs untreated cells
Experimental: FIG. 14 show the results of evaluation of cell proliferation in MCF-7 cells. FIG. […] Cell proliferation was determined using an AlamarBlue assay according to the manufacturer's instructions. Bars represent the mean±SE (n=5). Symbol “*” represents p<0.05 as compared to untreated cells. […] Cells were examined under an inverted microscope. Bars represent 100 μm.
Human breast cancer cells (MCF-7) were received from the RIKEN BioResource Center. For the culture of the cells, Dulbecco's modified Eagle's medium-high glucose (4.5 g L^−1 glucose; DMEM-HG) supplemented with 10% FBS and antibiotics (100 U mL^−1 penicillin and 100 μg mL^−1 streptomycin) was used. The cells were cultured under the culture conditions of 37° C., a humidity of 100%, and a 5% CO2/95% air atmosphere. For the culture, the breast cancer cells were added at 5,000 cells per well on 96-well plates, and at the same time, amaranthin or betanin was added at different concentrations, and the cells were cultured for 72 hours. After that, the activity of the breast cancer cells was evaluated by an AlamarBlue assay (alamarBlue Cell Viability Reagent, Thermo Fisher Scientific). The procedure followed the accompanying instructions.

HIV-1 protease [2] = target: T1, HIV-1 protease (Human immunodeficiency virus type 1 group M subtype B, UniProt P04585); settings: literature virtual screening, not tested experimentally there; cited from earlier work
HIV-1 protease [3] = target: T1, HIV-1 protease; experiment: Evaluation of HIV-1 protease inhibitory activity (residual substrate peptide by HPLC); assay type: biochemical; parameters: A recombinant HIV-1 protease (ab84117) from Abcam was used as an HIV-1 protease; purchased Abcam ab84117; settings: 25° C., 2 hours, pH 4.7
Source text: FIG. 15 show the results of evaluation of inhibition of an HIV-1 protease. FIG. 15A includes HPLC chromatograms of HIV-1 protease reaction mixtures. Dashed and solid arrows indicate an HIV-1 protease substrate and its degradation product, respectively. (+) and (−)HIV-1 protease indicate reaction mixtures with and without the HIV-1 protease, respectively. (−)Betalain indicates a reaction mixture without betalain pigments. The horizontal axis indicates the retention time (min), and the vertical axis indicates the signal intensity (μV). […] Gray and black bars indicate reaction mixtures containing betanin and amaranthin, respectively. The white bar indicates the reaction mixture without betalain pigments as a negative control. Bars represent the mean±SE (n=3). Symbol “*” represents p<0.05 as compared to the reaction mixture without betalain pigments. 0, 10, 50, and 100 indicate 0-, 10-, 50-, and 100-fold amounts of betalain as compared to the HIV-1 protease. […]
After the reaction, the reaction liquid was measured for the amount of the residual substrate peptide through use of HPLC, and a residual ratio with respect to the substrate before the reaction was calculated. […] Analysis was performed with an analytical wavelength being set to 260 nm allowing the HIV-1 protease substrate peptide to be detected.

O=C(O)C1=C/C(=C/C=[N+]2c3cc(O)c(O[C@@H]4O[C@H](CO)[C@@H](O)[C@H](O)[C@H]4O[C@@H]4O[C@H](C(=O)O)[C@@H](O)[C@H](O)[C@H]4O)cc3C[C@H]2C(=O)[O-])C[C@@H](C(=O)O)N1 [amaranthin]
cancer cell activity of the breast cancer cells [1]: significantly suppressed
virtual screening prediction as HIV-1 protease inhibitor (HIV-1 protease [2]): candidate of a novel HIV-1 protease inhibitor
activity of the HIV-1 protease (HIV-1 protease [3]; 100-fold amount with respect to the HIV-1 protease (16 pmol)): significantly inhibited

O=C(O)C1=C/C(=C/C=[N+]2/c3cc(O)c(OC4OC(CO)[C@@H](O)C(O)C4O)cc3CC2C(=O)[O-])CC(C(=O)O)N1 (stereo in doubt) [betanin, reference compound]
cancer cell activity of the breast cancer cells [1]: significantly suppressed
inhibitory activity on the HIV-1 protease (HIV-1 protease [3]; 10-, 50- and 100-fold amounts with respect to the HIV-1 protease): not found to have inhibitory activity

— patent US12241102B2, “Method for synthesizing betalain pigment” (priority 2018, dated 2025)
